pEC50, pIC50: −log10 of the molar value.
Key:
[1] = target: PI3-kinase p110-delta/p85-alpha (Homo sapiens, UniProt O00329); experiment: Inhibition of N-terminal His6-tagged recombinant full-length human p110delta/untagged recombinant full length p85alpha expressed in baculovirus infected Sf21 cells using phosphatidylinositol as substrate in presence of gamma-32P-ATP after 5 mins by thin layer chromatographic method
[2] = Antiproliferative activity against Balb/c mouse splenic B cells preincubated for 30 mins followed by LPS or F(ab')2 donkey anti-mouse IgM and recombinant mouse IL4 stimulation measured after 72 hrs by Alamar Blue reduction assay; format: functional, cell-based
[3] = target: PI3K p110 beta/p85 alpha (Homo sapiens, UniProt P42338); experiment: Inhibition of N-terminal His6-tagged recombinant full-length human p110beta/untagged recombinant full length p85alpha expressed in baculovirus infected Sf21 cells using phosphatidylinositol as substrate in presence of gamma-32P-ATP after 5 mins by thin layer chromatographic method
Chain of PI3K p110 beta/p85 alpha (P27986 whole entry): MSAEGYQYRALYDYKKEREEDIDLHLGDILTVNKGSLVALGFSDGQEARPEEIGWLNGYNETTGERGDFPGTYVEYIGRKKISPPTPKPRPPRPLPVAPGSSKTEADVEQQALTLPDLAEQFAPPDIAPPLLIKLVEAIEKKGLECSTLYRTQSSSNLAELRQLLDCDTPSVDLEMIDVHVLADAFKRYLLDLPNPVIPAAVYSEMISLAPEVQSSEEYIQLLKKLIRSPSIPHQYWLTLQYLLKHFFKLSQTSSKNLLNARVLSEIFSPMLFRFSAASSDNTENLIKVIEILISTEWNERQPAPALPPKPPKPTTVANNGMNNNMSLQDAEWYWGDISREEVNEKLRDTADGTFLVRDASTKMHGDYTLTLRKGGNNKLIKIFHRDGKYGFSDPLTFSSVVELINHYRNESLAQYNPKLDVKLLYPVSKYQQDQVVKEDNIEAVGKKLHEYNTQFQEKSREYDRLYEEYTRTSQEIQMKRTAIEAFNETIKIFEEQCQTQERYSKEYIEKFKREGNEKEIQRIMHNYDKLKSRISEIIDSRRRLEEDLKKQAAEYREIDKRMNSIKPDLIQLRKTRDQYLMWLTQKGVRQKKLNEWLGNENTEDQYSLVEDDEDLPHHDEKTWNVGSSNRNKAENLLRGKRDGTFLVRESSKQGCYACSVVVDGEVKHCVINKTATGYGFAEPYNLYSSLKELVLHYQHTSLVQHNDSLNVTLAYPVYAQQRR
Chain of PI3K p110 beta/p85 alpha (P42338 whole entry): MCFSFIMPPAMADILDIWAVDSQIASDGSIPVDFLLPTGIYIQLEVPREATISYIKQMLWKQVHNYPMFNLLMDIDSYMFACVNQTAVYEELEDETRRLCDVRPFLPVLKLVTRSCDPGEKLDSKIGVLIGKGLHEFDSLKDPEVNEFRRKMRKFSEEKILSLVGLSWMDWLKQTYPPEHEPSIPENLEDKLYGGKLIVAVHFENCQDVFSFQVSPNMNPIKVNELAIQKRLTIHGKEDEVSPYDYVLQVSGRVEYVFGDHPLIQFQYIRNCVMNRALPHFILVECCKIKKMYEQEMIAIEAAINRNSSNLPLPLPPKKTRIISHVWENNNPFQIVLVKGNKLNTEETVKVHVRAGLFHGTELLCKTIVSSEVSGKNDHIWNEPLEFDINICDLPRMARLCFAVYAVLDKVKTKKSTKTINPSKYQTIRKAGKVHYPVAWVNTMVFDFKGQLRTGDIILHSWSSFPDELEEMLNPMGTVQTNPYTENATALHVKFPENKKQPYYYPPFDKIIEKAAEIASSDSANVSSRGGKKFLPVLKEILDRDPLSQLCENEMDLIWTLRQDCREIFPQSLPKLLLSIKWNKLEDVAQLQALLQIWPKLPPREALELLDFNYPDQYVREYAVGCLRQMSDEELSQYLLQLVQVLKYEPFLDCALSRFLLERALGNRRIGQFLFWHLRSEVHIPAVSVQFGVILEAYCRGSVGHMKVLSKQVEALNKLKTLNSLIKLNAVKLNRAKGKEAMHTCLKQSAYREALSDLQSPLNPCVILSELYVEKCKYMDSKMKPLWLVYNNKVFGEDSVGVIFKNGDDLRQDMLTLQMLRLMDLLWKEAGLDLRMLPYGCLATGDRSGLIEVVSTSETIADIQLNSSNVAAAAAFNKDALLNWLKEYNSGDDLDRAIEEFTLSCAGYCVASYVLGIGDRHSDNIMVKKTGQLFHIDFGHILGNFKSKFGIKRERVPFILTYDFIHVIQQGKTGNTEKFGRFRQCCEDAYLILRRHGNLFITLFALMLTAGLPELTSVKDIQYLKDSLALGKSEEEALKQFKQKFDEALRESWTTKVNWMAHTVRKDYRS

[4] = target: PI3-kinase p110-alpha/p85-alpha (Homo sapiens, UniProt P42336); experiment: Inhibition of N-terminal His6-tagged recombinant full-length human p110alpha/untagged recombinant full length human p85alpha expressed in baculovirus infected Sf21 cells using phosphatidylinositol as substrate in presence of gamma-32P-ATP after 5 mins by thin layer chromatographic method
Chain of PI3-kinase p110-alpha/p85-alpha (P27986 whole entry): as the sequence (P27986 whole entry) above
Chain of PI3-kinase p110-alpha/p85-alpha (P42336 whole entry): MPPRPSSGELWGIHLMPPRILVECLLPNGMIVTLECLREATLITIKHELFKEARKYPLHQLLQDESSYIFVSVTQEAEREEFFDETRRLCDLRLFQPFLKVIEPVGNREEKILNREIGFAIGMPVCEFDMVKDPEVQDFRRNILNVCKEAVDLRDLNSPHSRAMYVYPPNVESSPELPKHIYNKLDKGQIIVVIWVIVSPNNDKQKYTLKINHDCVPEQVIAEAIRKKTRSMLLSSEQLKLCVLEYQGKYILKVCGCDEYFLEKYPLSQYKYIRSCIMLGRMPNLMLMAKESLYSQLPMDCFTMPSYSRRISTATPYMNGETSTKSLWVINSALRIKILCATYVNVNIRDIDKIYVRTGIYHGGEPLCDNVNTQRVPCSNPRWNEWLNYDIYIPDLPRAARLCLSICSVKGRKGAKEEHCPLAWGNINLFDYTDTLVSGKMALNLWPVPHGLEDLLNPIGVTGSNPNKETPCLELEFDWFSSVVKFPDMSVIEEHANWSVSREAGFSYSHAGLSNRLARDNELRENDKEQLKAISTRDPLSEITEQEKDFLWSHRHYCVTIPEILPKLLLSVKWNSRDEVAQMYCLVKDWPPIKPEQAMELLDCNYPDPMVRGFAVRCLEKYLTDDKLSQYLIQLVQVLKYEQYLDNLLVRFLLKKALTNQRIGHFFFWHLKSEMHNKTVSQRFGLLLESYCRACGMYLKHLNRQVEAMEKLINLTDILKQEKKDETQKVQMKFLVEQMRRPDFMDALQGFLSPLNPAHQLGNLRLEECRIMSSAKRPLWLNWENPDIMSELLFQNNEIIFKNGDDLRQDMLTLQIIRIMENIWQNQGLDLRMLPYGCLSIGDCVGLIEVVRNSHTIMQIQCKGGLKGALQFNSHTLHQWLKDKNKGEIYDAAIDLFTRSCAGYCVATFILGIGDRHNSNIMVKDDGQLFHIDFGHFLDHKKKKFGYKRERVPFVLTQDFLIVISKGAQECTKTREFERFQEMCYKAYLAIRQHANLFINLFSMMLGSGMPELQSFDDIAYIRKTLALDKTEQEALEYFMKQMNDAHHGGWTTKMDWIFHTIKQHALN

Chain of PI3-kinase p110-delta/p85-alpha (P27986 whole entry): as the sequence (P27986 whole entry) above
Chain of PI3-kinase p110-delta/p85-alpha (O00329 whole entry): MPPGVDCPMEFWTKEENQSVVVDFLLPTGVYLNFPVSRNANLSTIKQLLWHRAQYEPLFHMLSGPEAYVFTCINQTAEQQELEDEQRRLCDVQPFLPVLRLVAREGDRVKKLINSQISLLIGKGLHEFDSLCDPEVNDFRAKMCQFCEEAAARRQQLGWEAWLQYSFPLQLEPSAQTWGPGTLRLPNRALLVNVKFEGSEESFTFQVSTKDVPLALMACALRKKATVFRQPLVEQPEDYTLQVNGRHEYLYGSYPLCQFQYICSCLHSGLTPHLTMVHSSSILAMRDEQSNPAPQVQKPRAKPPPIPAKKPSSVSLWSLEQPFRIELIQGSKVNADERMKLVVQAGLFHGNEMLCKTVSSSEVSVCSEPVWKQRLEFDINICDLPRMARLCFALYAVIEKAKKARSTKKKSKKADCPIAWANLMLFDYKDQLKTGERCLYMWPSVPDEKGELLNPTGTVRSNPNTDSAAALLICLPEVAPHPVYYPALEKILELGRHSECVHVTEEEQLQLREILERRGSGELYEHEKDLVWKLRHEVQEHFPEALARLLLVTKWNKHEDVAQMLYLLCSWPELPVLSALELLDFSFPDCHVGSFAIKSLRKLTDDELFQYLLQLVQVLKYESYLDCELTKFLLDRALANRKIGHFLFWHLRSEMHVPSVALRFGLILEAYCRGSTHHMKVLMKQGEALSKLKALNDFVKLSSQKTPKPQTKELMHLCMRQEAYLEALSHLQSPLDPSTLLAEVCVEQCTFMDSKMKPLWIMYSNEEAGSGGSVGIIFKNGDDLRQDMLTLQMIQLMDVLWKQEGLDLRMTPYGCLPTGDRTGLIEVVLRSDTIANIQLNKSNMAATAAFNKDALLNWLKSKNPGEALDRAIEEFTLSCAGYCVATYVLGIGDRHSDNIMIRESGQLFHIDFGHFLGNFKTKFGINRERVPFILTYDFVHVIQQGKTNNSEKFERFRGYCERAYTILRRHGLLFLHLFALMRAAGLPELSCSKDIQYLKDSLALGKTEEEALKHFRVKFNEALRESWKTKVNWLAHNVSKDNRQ

Row | Structure (SMILES) | pIC50 [1] | pEC50 [2] | pIC50 [3] | pIC50 [4]
1 | Cc1cccc2cc([C@H](C)Nc3ncnc4[nH]nc(Cl)c34)n(C3CC3)c(=O)c12 | > 7.00 |  |  | 
2 | Cc1cccc2cc(Cn3nc(-c4ccc(Cl)c(O)c4)c4c(N)ncnc43)n(C(C)C)c(=O)c12 | > 7.00 | > 7.00 |  | 
3 | Cc1cccc2cc([C@H](C)Nc3nc(F)nc4[nH]cnc34)n(C3CC3)c(=O)c12 | > 7.00 |  | > 7.00 | 
4 | Cc1ccccc1-n1c(Cn2nc(C(N)=O)c3c(N)ncnc32)cc2cccc(C)c2c1=O |  | > 7.00 |  | 
5 | CC(Nc1ncnc2[nH]cnc12)c1cc2ccccc2c(=O)n1-c1ccccc1 (centres undefined) | > 7.00 | > 7.00 |  | 
6 | Cc1ccccc1-n1c(Cn2nc(C#C[C@@H](C)O)c3c(N)ncnc32)cc2ccccc2c1=O | > 6.00 | > 6.00 |  | < 5.00
7 | Cc1cccc2cc(Cn3nc(C(F)F)c4c(N)ncnc43)n(-c3ccccc3)c(=O)c12 | > 7.00 | > 7.00 |  | 
8 | Nc1ncnc2c1c(I)nn2Cc1cc2cccc(F)c2c(=O)n1-c1ccccc1F | > 5.00 |  |  | 
9 | Cc1cccc2cc(Cn3nc(-c4cccc(O)c4)c4c(N)ncnc43)n(C)c(=O)c12 | > 7.00 | > 6.00 |  | 
10 | Cc1cccc2cc(C(C)Nc3ncnc4[nH]cnc34)n(CCN3CCOCC3)c(=O)c12 (centres undefined) | > 7.00 | > 7.00 |  | 
11 | CCC(Nc1ncnc2[nH]cnc12)c1cc2cccc(C)c2c(=O)n1C(C)C (centres undefined) | > 7.00 | > 7.00 |  | 
12 | Cc1cccc2cc([C@@H](C)Nc3ncnc4[nH]cnc34)n(C3CCC3)c(=O)c12 |  | > 5.00 |  | 
13 | Nc1ncnc2c1c(-c1cc(O)cc(F)c1)nn2Cc1cc2cccc(F)c2c(=O)n1-c1ccccc1F | > 7.00 | > 7.00 |  | 
14 | Cc1ccccc1-n1c(Cn2nc(-c3ccc(O)c(F)c3)c3c(N)ncnc32)cc2cccc(C)c2c1=O | > 7.00 | > 6.00 |  | < 5.00
15 | Cc1cccc2cc(Cn3nc(-c4cccc(Cl)c4)c4c(N)ncnc43)n(-c3ccccc3F)c(=O)c12 | > 5.00 | < 5.00 | < 5.00 | 
16 | Cc1cccc2cc(C(C)Nc3ncnc4[nH]cnc34)n(-c3ccccc3)c(=O)c12 (centres undefined) |  | > 7.00 |  | 
17 | Cc1cccc2cc(C(C)Nc3ncnc4[nH]cnc34)n(C3CCN(C)CC3)c(=O)c12 (centres undefined) | > 7.00 | > 7.00 |  | 
18 | CCC(Nc1ncnc2[nH]cnc12)c1cc2cccc(C)c2c(=O)n1C1CCN(C)CC1 (centres undefined) |  | > 7.00 |  | 
19 | Cc1cccc2cc(C(C)Nc3ncnc4[nH]cnc34)n(CCN3CCCC3)c(=O)c12 (centres undefined) | > 7.00 | > 7.00 |  | 
20 | C=C(C)c1nn(Cc2cc3cccc(C)c3c(=O)n2-c2ccccc2)c2ncnc(N)c12 | > 7.00 |  |  | 
21 | Cc1cccc2cc(C(C)Nc3ncnc4[nH]cnc34)n(-c3cc(F)cc(F)c3)c(=O)c12 (centres undefined) | > 7.00 | > 7.00 |  | 
22 | Cc1cccc2cc(C(C)Nc3ncnc4[nH]cnc34)n(-c3ccccc3F)c(=O)c12 (centres undefined) | > 7.00 | > 7.00 | > 5.00 | 
23 | Nc1ncnc2c1c(-c1ccc(Cl)c(O)c1)nn2Cc1cc2cccc(I)c2c(=O)n1C1CCCC1 |  | > 5.00 |  | 
24 | CC(C)n1c(Cn2nc(-c3cccc(O)c3)c3c(N)ncnc32)cc2ccccc2c1=O | > 7.00 | > 6.00 |  | 
25 | Nc1ncnc2c1c(-c1cccc(O)c1)nn2Cc1cc2cccc(Cl)c2c(=O)n1C1CC1 | > 7.00 | > 7.00 |  | 

Row | Structure (SMILES) | pIC50 [1] | pEC50 [2] | pIC50 [3] | pIC50 [4]
26 | Cc1ccccc1-n1c(Cn2nc(-c3ccc(CN)cc3)c3c(N)ncnc32)cc2cccc(C)c2c1=O | > 5.00 |  |  | 
27 | Cc1cccc2cc([C@H](C)Nc3nc(N)ncc3Cl)n(C3CC3)c(=O)c12 | > 7.00 |  |  | 
28 | CCC(Nc1ncnc2[nH]cnc12)c1cc2cccc(C)c2c(=O)n1C1CCC1 (centres undefined) | > 7.00 | > 6.00 |  | 
29 | Cc1cccc2cc([C@@H](C)Nc3ncnc4[nH]cnc34)n(C3CC3)c(=O)c12 |  | < 5.00 |  | 
30 | Cc1cccc2cc(Cn3nc(-c4cc(O)cc(F)c4)c4c(N)ncnc43)n(C3CCOCC3)c(=O)c12 | > 7.00 | > 7.00 |  | 
31 | CC(C)n1c(Cn2nc(-c3cccc(O)c3)c3c(N)ncnc32)cc2cccc(F)c2c1=O |  | > 6.00 |  | 
32 | Cc1cccc2cc([C@H](C)Nc3ncnc4ccccc34)n(-c3ccccc3)c(=O)c12 | > 7.00 |  |  | 
33 | Nc1ncnc2c1c(-c1cccc(O)c1)nn2Cc1cc2cccc(F)c2c(=O)n1-c1ccccc1F | > 6.00 |  |  | 
34 | CCn1c(Cn2nc(-c3cccc(O)c3)c3c(N)ncnc32)cc2cccc(C)c2c1=O | > 7.00 | > 7.00 |  | 
35 | Cc1cccnc1-n1c(Cn2nc(I)c3c(N)ncnc32)cc2cccc(C)c2c1=O |  | > 6.00 |  | < 5.00
36 | Cc1ccccc1-n1c(Cn2nc(-c3cccc(O)c3)c3c(N)nccc32)cc2cccc(C)c2c1=O | > 7.00 | > 6.00 |  | 
37 | Cc1cccc2cc(Cn3nc(-c4cn[nH]c4)c4c(N)ncnc43)n(-c3ccccc3)c(=O)c12 | > 7.00 | > 7.00 |  | 
38 | CC(Nc1ncnc2[nH]cnc12)c1cc2cccc(Cl)c2c(=O)n1-c1ccccc1 (centres undefined) |  | > 7.00 |  | 
39 | Cc1cccc2cc(C(C)Nc3nc(N)nc4[nH]cnc34)n(-c3ccccc3)c(=O)c12 (centres undefined) |  |  | > 7.00 | 
40 | Cc1ccccc1-n1c(Cn2nc(C(=O)NO)c3c(N)ncnc32)cc2cccc(C)c2c1=O |  | > 7.00 |  | 
41 | Cc1cccc2cc([C@H](C)Nc3ncnc4[nH]cnc34)n(-c3ccc(F)cc3)c(=O)c12 |  |  | > 7.00 | 
42 | Cc1cccc2cc([C@H](C)Nc3nc(Cl)nc4[nH]cnc34)n(C3CC3)c(=O)c12 | > 7.00 |  | > 7.00 | 
43 | CCC(Nc1ncnc2[nH]cnc12)c1cc2cccc(C)c2c(=O)n1-c1cc(F)cc(F)c1 (centres undefined) | > 7.00 | > 7.00 |  | 
44 | Cc1ccccc1-n1c(Cn2nc(-c3cc(O)cc(F)c3)c3c(N)ncnc32)cc2ccccc2c1=O | > 7.00 | > 7.00 |  | 
45 | Cc1cccc2cc(Cn3nc(-c4cn[nH]c4)c4c(N)ncnc43)n(-c3ccccc3C(F)(F)F)c(=O)c12 | > 7.00 | > 7.00 |  | 
46 | Cc1cccc2cc(C(C)Nc3ncnc4[nH]cnc34)n(C(C)C)c(=O)c12 (centres undefined) | > 7.00 | > 7.00 |  | 
47 | COc1ccc(-c2nn(Cc3cc4cccc(C)c4c(=O)n3-c3ccccc3F)c3ncnc(N)c23)cc1 |  | > 6.00 |  | 
48 | Cc1cccc2cc(Cn3nc(I)c4c(N)ncnc43)n(-c3ccccc3C(C)C)c(=O)c12 | > 7.00 | > 7.00 | > 5.00 | 
49 | CC(C)n1c(Cn2nc(I)c3c(N)ncnc32)cc2cccc(F)c2c1=O | > 5.00 |  |  | 
50 | CC(C)n1c(Cn2nc(-c3cccc(O)c3)c3c(N)ncnc32)cc2cccc(Cl)c2c1=O | > 7.00 | > 7.00 |  | 

Row | Structure (SMILES) | pIC50 [1] | pEC50 [2] | pIC50 [3] | pIC50 [4]
51 | CC(C)n1c(Cn2nc(-c3cc(O)cc(F)c3)c3c(N)ncnc32)cc2ccccc2c1=O | > 7.00 | > 7.00 |  | 
52 | Cc1cccc2cc([C@H](C)Nc3nc(N)ncc3F)n(-c3ccccc3)c(=O)c12 | > 7.00 |  |  | 
53 | Cc1cccc2cc(Cn3nc(-c4cc(O)cc(F)c4)c4c(N)ncnc43)n(C)c(=O)c12 | > 7.00 | > 7.00 |  | 
54 | Cc1cccc2cc(C(C)Nc3ncnc4[nH]cnc34)n(C3CC3)c(=O)c12 (centres undefined) |  | > 7.00 |  | 
55 | CCC(Nc1ncnc2[nH]cnc12)c1cc2cccc(C)c2c(=O)n1-c1ccccc1C (centres undefined) | > 7.00 | > 7.00 |  | 
56 | Cc1cccc2cc([C@@H](C)Nc3ncnc4[nH]cnc34)n(-c3ccccc3)c(=O)c12 |  | > 6.00 |  | 
57 | CNC(=O)c1cccc(-c2nn(Cc3cc4cccc(C)c4c(=O)n3-c3ccccc3C)c3ncnc(N)c23)c1 | > 5.00 |  |  | 
58 | CCc1nn(Cc2cc3cccc(C)c3c(=O)n2-c2ccccc2)c2ncnc(N)c12 | > 7.00 | > 7.00 |  | 
59 | C[C@H](Nc1ncnc2nc[nH]c12)c1cc2cccc(Cl)c2c(=O)n1-c1ccccc1 [DUVELISIB] |  | > 7.00 |  | 
60 | Cc1cccc2cc([C@H](C)Nc3nc(Cl)ncc3Cl)n(-c3ccccc3)c(=O)c12 |  | > 7.00 |  | 
61 | CC(C)n1c(Cn2nc(-c3cc(O)cc(F)c3)c3c(N)ncnc32)cc2cccc(F)c2c1=O | > 7.00 | > 7.00 |  | 
62 | Cc1cccc(C)c1-n1c(CNc2ncnc3[nH]cnc23)cc2cccc(C)c2c1=O | > 7.00 |  |  | 
63 | CCC(Nc1ncnc2[nH]cnc12)c1cc2ccccc2c(=O)n1-c1ccccc1 (centres undefined) | > 7.00 | > 7.00 |  | 
64 | Nc1ncnc2c1c(I)nn2Cc1cc2cccc(I)c2c(=O)n1C1CCCC1 |  | > 5.00 |  | 
65 | CC(C)n1c(Cn2nc(-c3cc(O)cc(F)c3)c3c(N)ncnc32)cc2cccc(Cl)c2c1=O | > 7.00 | > 7.00 |  | 
66 | CCc1ccccc1-n1c(Cn2nc(I)c3c(N)ncnc32)cc2cccc(C)c2c1=O | > 7.00 | > 6.00 | > 5.00 | 
67 | Nc1ncnc2c1c(I)nn2Cc1cc2cccc(Cl)c2c(=O)n1C1CC1 | > 7.00 | > 7.00 |  | 
68 | Cc1cccc2cc(C(C)Nc3ncnc4[nH]cnc34)n(C3CCOCC3)c(=O)c12 (centres undefined) | > 7.00 | > 7.00 |  | 
69 | Cc1cccc2cc(C(C)Nc3ncnc4[nH]cnc34)n(-c3cccc(F)c3)c(=O)c12 (centres undefined) | > 7.00 | > 7.00 |  | 
70 | C=Cc1nn(Cc2cc3cccc(C)c3c(=O)n2-c2ccccc2)c2ncnc(N)c12 | > 7.00 | > 7.00 |  | 
71 | CC(=O)Nc1nc2ccc(-c3nn(Cc4cc5cccc(C)c5c(=O)n4-c4cccc(F)c4)c4ncnc(N)c34)cc2s1 | > 7.00 | > 7.00 | > 5.00 | 
72 | Cc1ccccc1-n1c(Cn2nc(CC#N)c3c(N)ncnc32)cc2cccc(C)c2c1=O | > 7.00 | > 6.00 |  | 
73 | Cc1cccc2cc(C(C)Nc3ncnc4[nH]cnc34)n(-c3c(F)cccc3F)c(=O)c12 (centres undefined) | > 7.00 | > 7.00 |  | 
74 | Cc1cccc2cc(C(C)Nc3ncnc4[nH]cnc34)n(C3CCC3)c(=O)c12 (centres undefined) | > 7.00 | > 7.00 |  | 
75 | CCc1nn(Cc2cc3cccc(C)c3c(=O)n2-c2ccccc2C)c2ncnc(N)c12 | > 7.00 | > 6.00 |  | 
